Legend:
mice = assay: Skin-fold thickness as a measure of UV-induced edema; format: in vivo, mouse
Description: Adult female CD-1 mice were maintained in our animal facility and provided with Purina lab chow (Nestlé Purina PetCare, St. Louis, Mo.) and water ad libitum. The dorsal skin was clipped one day before treatment and shaved with a Remington Microscreen shaver (Wahl, Sterling, II) on the day of treatment. […] UVB TL 40W/12 RS bulbs (Philips, Somerset, N.J.) were used that emitted approximately 30% UV-A, 70% UV-B and <1% UV-C, with a total output of 470 μW/cm^2, as measured with radiometric photodetector probes (Newport, Irvine, Calif.). Skin-fold thickness was measured using calipers to lightly pinch the dorsal skin. All animal procedures were approved by our Institutional Animal Care and Use Committee.

[1] = tested on: proliferating cell nuclear antigen (PCNA); assay: PCNA expression in skin; format: in vivo, mouse; settings: sham-irradiated skin and UV-exposed skin
Procedure: It has been discovered that Erbb2 modulates the expression of genes important in both proliferation and apoptosis following UV exposure in vivo (Example 9). Accordingly, the influence of Erbb2 on both apoptosis and cell proliferation was assessed in order to determine the mechanisms of Erbb2's effect on hyperplasia in the skin after UV irradiation. Erbb2 suppresses UV-induced apoptosis in vitro, although the effect was slight (32). The percentage of TUNEL-positive basal cells was increased at 24 h after UV in vehicle-treated skin, consistent with previous observations in this animal model (13). […] Erbb2 reportedly suppresses keratinocyte differentiation (11), a process leading to keratinocyte death that is mechanistically and morphologically distinct from apoptosis. […] Mean proliferating cell nuclear antigen (PCNA) expression, a marker of cell proliferation, was less in Erbb2 inhibitor treated sham-irradiated skin and in UV-exposed skin when compared to the vehicle-treated controls.

skin = assay: Cell cycle analysis of skin sections by flow cytometry; format: in vivo, mouse; settings: inhibition prior to UV irradiation
Procedure: Flow cytometry. […] sections from paraffin embedded blocks were dewaxed with xylene, rehydrated and digested in PBS containing 0.5% pepsin (Sigma, St. Louis, Mo.). The nuclei were isolated by filtration and suspended in Vindelov's (56) solution reagent (3.5 mM tris base, pH 7.6, 10 mM NaCl, 10 μg/ml Ribonuclease A, 75 μg/ml PI, 1.0 μl/ml IPEGAL; (71)). At least 10,000 events from each sample were analyzed for flow cytometry on a FACSCalibur flow cytometer (Becton Dickinson, Franklin Lakes, N.J.). Data were acquired in the FL2 channel with a […] filter. Fluorescence signals were pulse processed and single cells identified using a FL2W versus FL2A plot. A histogram of FL2A was plotted for single cells and cell cycle distributions determined using ModFit LT 3.1 software (Verity Software House, Topsham, Me.).
Cell cycle. […] For in vitro analysis, keratinocytes were resuspended, fixed in 70% ethanol, resuspended in Vindelov's solution (3.5 mM Tris base, pH 7.6, 10 mM NaCl, 10 μg/ml Ribonuclease A, 75 μg/ml propidium iodide, 1.01l/ml IPEGAL), and analyzed on a FACSCalibur flow cytometer (Becton Dickinson, Franklin Lakes, N.J.). Cell cycle distributions were determined using ModFit LT 3.1 software (Verity Software House, Topsham, Me.). […]

[2] = tested on: platelet-derived growth factor receptor kinase
[3] = target: insulin-like growth factor I receptor kinase (Homo sapiens, UniProt P08069)
Chain of insulin-like growth factor I receptor kinase (P08069 31-1367): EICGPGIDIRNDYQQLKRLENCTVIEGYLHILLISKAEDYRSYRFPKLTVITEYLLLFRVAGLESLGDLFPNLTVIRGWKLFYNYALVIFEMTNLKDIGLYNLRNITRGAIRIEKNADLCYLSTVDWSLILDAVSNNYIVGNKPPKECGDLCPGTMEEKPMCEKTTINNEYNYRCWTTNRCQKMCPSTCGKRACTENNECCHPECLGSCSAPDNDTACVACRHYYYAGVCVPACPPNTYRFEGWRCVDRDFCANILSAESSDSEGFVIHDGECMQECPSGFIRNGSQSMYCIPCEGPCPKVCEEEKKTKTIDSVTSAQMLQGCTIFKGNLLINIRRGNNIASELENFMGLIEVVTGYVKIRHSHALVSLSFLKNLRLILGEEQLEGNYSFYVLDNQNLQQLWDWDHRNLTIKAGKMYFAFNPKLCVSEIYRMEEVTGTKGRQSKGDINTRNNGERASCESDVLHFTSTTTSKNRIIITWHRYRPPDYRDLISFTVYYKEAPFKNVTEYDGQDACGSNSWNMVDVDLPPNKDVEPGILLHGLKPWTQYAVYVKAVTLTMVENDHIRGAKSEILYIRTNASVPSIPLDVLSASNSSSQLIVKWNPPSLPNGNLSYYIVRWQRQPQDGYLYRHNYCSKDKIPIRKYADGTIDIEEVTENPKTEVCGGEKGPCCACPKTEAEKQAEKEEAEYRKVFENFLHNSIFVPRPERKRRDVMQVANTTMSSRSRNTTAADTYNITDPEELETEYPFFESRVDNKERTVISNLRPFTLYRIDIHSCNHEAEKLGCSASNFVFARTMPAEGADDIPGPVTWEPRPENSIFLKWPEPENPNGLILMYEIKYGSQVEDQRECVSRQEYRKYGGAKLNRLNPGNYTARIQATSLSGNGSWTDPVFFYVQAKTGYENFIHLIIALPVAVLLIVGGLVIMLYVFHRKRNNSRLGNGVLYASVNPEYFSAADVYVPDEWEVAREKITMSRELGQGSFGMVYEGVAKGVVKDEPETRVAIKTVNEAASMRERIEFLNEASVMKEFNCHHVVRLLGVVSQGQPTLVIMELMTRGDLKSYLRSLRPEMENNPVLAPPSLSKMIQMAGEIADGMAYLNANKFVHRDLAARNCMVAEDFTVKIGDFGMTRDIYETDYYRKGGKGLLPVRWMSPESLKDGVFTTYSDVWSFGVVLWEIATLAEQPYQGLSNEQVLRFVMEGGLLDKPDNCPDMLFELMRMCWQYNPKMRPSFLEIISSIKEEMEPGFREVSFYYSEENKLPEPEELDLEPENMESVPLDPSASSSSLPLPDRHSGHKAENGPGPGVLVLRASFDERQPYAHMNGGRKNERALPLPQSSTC

For `COc1cc(/C=C(\C#N)C(N)=O)cc(CSc2nc3ccccc3s2)c1O` [AG825], the “suppression of UV-induced edema (skin-fold thickness)” value (shortened to “suppression … (skin-fold thickness)”) (mice; 4 d after UV exposure) was 33%, the “suppression … (skin-fold thickness)” value (mice; 5 d after UV exposure) was 37% and the “suppression … (skin-fold thickness)” value (mice; 6 d after UV exposure) was 64%. The “mean PCNA expression vs vehicle-treated controls” value [1] was “less”, the “S-phase cells in skin” value (skin) was “increased” and the “fold higher IC50 for platelet-derived growth factor receptor kinase than for Erbb2” value [2] was “more than 100 fold”. For the same molecule, the “fold higher IC50 for insulin-like growth factor I receptor kinase than for Erbb2” value [3] was “more than 100 fold”.

Reference: patent US20080119530A1, “Method for treatment and prevention of ultraviolet light induced skin pathologies” (priority 2006, published 2008)
